This assay addresses Replicase polyprotein 1ab (Severe acute respiratory syndrome coronavirus 2, UniProt P0DTD1). As to the kind of experiment: SARS-CoV-2 Coronavirus 3C Protease FRET Assay. As to the method:
IC50 values were calculated by fitting a curve of Vmax to experimental values with the controls (DMSO) as the top and bottom limits of the curve. […] GraphPad Prism is the analysis tool for all measurements.

The term Ki denotes a measure of affinity in units of concentration, obtained from inhibition or displacement. Low readings indicate higher affinity, high ones lower affinity.

Compound `O=C[C@H](C[C@@H]1CCNC1=O)NC(=O)C1[C@@H]2CCC[C@H]2CN1C(=S)NCc1cccc(F)c1` (stereo not given in full) [WO2022021841, 59] gave a Ki of 37 nM.
`CC(C)(C)C(NC(=O)Cc1ccc(Cl)cc1Cl)C(=O)N1C[C@@H]2CCC[C@H]2C1C(=O)N[C@H](C=O)C[C@@H]1CCNC1=O` (stereo not given in full) [WO2022021841, 60] came in with a Ki of 33 nM.
`CC1CNC(=O)[C@@H]1C[C@H](NC(=O)C1[C@H]2[C@H](CN1C(=O)COc1ccc(OC(F)(F)F)cc1)C2(C)C)C(=O)CF` (stereo not given in full) [WO2022021841, 79] registered a Ki of 65 nM.
`O=C[C@H](C[C@@H]1CCNC1=O)NC(=O)C1[C@@H]2CCC[C@H]2CN1C(=O)COc1cccc(-c2ccccc2)c1` (stereo not given in full) [WO2022021841, 46]: the Ki was found to be 10 nM.
`O=C(N[C@@H](C[C@@H]1CCNC1=O)C(=O)CF)C1[C@H]2CCC[C@H]2CN1C(=O)COc1ccc(Cl)cc1Cl` (stereo not given in full) [WO2022021841, 3] showed a Ki of 18 nM.
Regarding `CC(C)(OCc1ccc(F)cc1F)C(=O)N1C[C@@H]2CCC[C@H]2C1C(=O)N[C@H](C=O)C[C@@H]1CCNC1=O` (stereo not given in full) [WO2022021841, 62], the Ki stood at 40 nM.
For the compound `CC1CNC(=O)[C@@H]1C[C@@H](C=O)NC(=O)C1[C@@H]2[C@H](CN1C(=O)COc1cccc(-c3ccc(Cl)cc3)c1)C2(C)C` (stereo not given in full) [WO2022021841, 49], the affinity, expressed as Ki, was 22 nM.
`O=C[C@H](C[C@@H]1CCNC1=O)NC(=O)C1[C@@H]2CCC[C@H]2CN1C(=O)CCc1cc(Cl)cc(Cl)c1` (stereo not given in full) [WO2022021841, 64] displayed an inhibition constant Ki of 33 nM.
As for `CC1(C)[C@@H]2C(C(=O)N[C@H](C=O)C[C@@H]3CCNC3=O)N(C(=O)COc3ccc4c(c3)OCO4)C[C@@H]21` (stereo not given in full) [WO2022021841, 21], the figure is 73 nM; as for `CCC[C@@H](NC(=O)C1C2[C@H](CN1C(=O)[C@@H](c1ccccc1)C(C)C)C2(C)C)C(=O)C(=O)NC1CC1` (stereo not given in full) [WO2022021841, 13], 82700 nM.
`COc1ccc(OC(C)C(=O)N2C[C@@H]3CCC[C@H]3C2C(=O)N[C@H](C=O)C[C@@H]2CCNC2=O)cc1` (stereo not given in full) [WO2022021841, 29] showed a Ki of 78 nM.
`COc1ccc(CNC(=O)N2C[C@@H]3CCC[C@H]3C2C(=O)N[C@H](C=O)C[C@@H]2CCNC2=O)cc1` (stereo not given in full) [WO2022021841, 57] yielded a Ki of 26 nM.
As for `O=C[C@H](C[C@@H]1CCNC1=O)NC(=O)C1[C@@H]2CCC[C@H]2CN1C(=O)C(F)(F)Oc1ccc(Cl)cc1Cl` (stereo not given in full) [WO2022021841, 71], the figure is 40 nM; as for `COC(=O)C[C@H](NC(=O)[C@@H]1CCCN1C(=O)c1cc2ccccc2[nH]1)C(=O)CF` [WO2022021841, 1], 1100 nM; as for `CC1CNC(=O)[C@@H]1C[C@H](NC(=O)C1[C@@H]2[C@H](CN1C(=O)COc1cccc(-c3ccc(Cl)cc3)c1)C2(C)C)C(=O)CF` (stereo not given in full) [WO2022021841, 8], 17 nM.
Compound `O=C[C@H](C[C@@H]1CCNC1=O)NC(=O)C1[C@@H]2CCC[C@H]2CN1C(=O)CCc1ccc(O)cc1` (stereo not given in full) [WO2022021841, 74] returned an inhibition constant Ki of 51 nM.
As for `O=C[C@H](C[C@@H]1CCNC1=O)NC(=O)C1[C@@H]2CCC[C@H]2CN1C(=O)CCc1ccc(Cl)cc1` (stereo not given in full) [WO2022021841, 65], the figure is 44 nM.
For the compound `COc1cccc(CCC(=O)N2C[C@@H]3CCC[C@H]3C2C(=O)N[C@H](C=O)C[C@@H]2CCNC2=O)c1` (stereo not given in full) [WO2022021841, 78], the Ki was found to be 68 nM.
Compound `CC(C)(C)NC(=O)C(=O)[C@H](C[C@@H]1CCNC1=O)NC(=O)C1[C@@H]2CCC[C@H]2CN1C(=O)COc1ccc(Cl)cc1Cl` (stereo not given in full) [WO2022021841, 50] returned a Ki of 1190 nM.
As for `CC1(C)[C@H]2CN(C(=O)COc3ccc(Cl)cc3Cl)C(C(=O)N[C@H](C=O)C[C@H]3C(=O)NCC3(F)F)[C@@H]21` (stereo not given in full) [WO2022021841, 56], the figure is 33 nM; as for `COc1cc(OCC(=O)N2C[C@H]3[C@@H](C2C(=O)N[C@H](C=O)C[C@@H]2CCNC2=O)C3(C)C)cc(OC)c1OC` (stereo not given in full) [WO2022021841, 35], 51 nM.
The compound `O=C[C@H](C[C@@H]1CCNC1=O)NC(=O)C1[C@@H]2CCC[C@H]2CN1C(=O)CCc1cccc(Cl)c1` (stereo not given in full) [WO2022021841, 66] gave an inhibitory constant (Ki) of 36 nM.
In turn, `O=C[C@H](C[C@@H]1CCNC1=O)NC(=O)C1[C@@H]2CCC[C@H]2CN1C(=O)CCc1cccc(O)c1` (stereo not given in full) [WO2022021841, 73] came in with a Ki of 31 nM.
For `CC(C)(C)C(NCc1ccc(Cl)cc1Cl)C(=O)N1C[C@@H]2CCC[C@H]2C1C(=O)N[C@H](C=O)C[C@@H]1CCNC1=O` (stereo not given in full) [WO2022021841, 61], the Ki stood at 39 nM.
For `C[C@H](OCc1ccccc1)C(=O)N1C[C@@H]2CCC[C@@H]2C1C(=O)N[C@H](C=O)C[C@@H]1CCNC1=O` (stereo not given in full) [WO2022021841, 18], the Ki was determined as 28 nM.
As for `CC(C)(CCc1ccc(Cl)c(F)c1)C(=O)N1C[C@@H]2CCC[C@H]2C1C(=O)N[C@H](C=O)C[C@@H]1CCNC1=O` (stereo not given in full) [WO2022021841, 63], the figure is 26 nM; as for `O=C(N[C@@H](C[C@@H]1CCNC1=O)C(=O)CCl)C1[C@@H]2CCC[C@H]2CN1C(=O)COc1ccc(Cl)cc1Cl` (stereo not given in full) [WO2022021841, 42], 19 nM.
Regarding `CC(C)(Oc1ccc(Cl)cc1Cl)C(=O)N1Cc2ccccc2CC1C(=O)N[C@H](C=O)C[C@@H]1CCNC1=O` (stereo not given in full) [WO2022021841, 38], the Ki was 91 nM.
As for `CC1CNC(=O)[C@@H]1C[C@@H](C=O)NC(=O)C1[C@@H]2CCC[C@H]2CN1C(=O)COc1ccc(Cl)cc1Cl` (stereo not given in full) [WO2022021841, 40], the figure is 17 nM; as for `CC(C)(Oc1ccc(Cl)cc1Cl)C(=O)N1C[C@@H]2CCC[C@H]2C1C(=O)N[C@H](C=O)C[C@@H]1CCNC1=O` (stereo not given in full) [WO2022021841, 39], 33 nM.
As to `O=C[C@H](C[C@@H]1CCNC1=O)NC(=O)C1[C@@H]2CCC[C@H]2CN1C(=S)NCc1ccc(F)cc1` (stereo not given in full) [WO2022021841, 58], the inhibitory constant (Ki) stood at 30 nM.
Compound `CCC[C@@H](NC(=O)C1[C@@H]2CCC[C@H]2CN1C(=O)c1cc2ccccc2[nH]1)C(=O)C(=O)NC1CC1` (stereo not given in full) [WO2022021841, 11] had a Ki of 960 nM.
`CC1CNC(=O)[C@@H]1C[C@@H](C=O)NC(=O)C1[C@@H]2CCC[C@H]2CN1C(=O)COc1cccc(-c2ccccc2)c1` (stereo not given in full) [WO2022021841, 47] registered an inhibition constant Ki of 12 nM.
As for `CC1CNC(=O)[C@@H]1C[C@@H](C=O)NC(=O)C1[C@@H]2CCC[C@H]2CN1C(=O)C(C)(C)Oc1ccc(Cl)cc1Cl` (stereo not given in full) [WO2022021841, 41], the figure is 56 nM.
Consider `O=C[C@H](C[C@@H]1CCNC1=O)NC(=O)C1[C@@H]2CCC[C@H]2CN1C(=O)CCc1ccc(F)c(F)c1` (stereo not given in full) [WO2022021841, 25], for which the affinity corresponds to a Ki of 16 nM.
The result for `CC1CNC(=O)[C@@H]1C[C@H](NC(=O)C1[C@@H]2[C@H](CN1C(=O)COc1ccc(Cl)c(Cl)c1)C2(C)C)C(=O)CF` (stereo not given in full) [WO2022021841, 7] reads 15 nM; that for `O=C[C@H](C[C@@H]1CCNC1=O)NC(=O)C1[C@@H]2CCC[C@H]2CN1C(=O)/C=C/c1ccc(Cl)cc1Cl` (stereo not given in full) [WO2022021841, 70], 81 nM; that for `O=C(NC1CC1)C(=O)[C@H](C[C@@H]1CCNC1=O)NC(=O)C1[C@@H]2CCC[C@H]2CN1C(=O)COc1ccc(Cl)cc1Cl` (stereo not given in full) [WO2022021841, 52], 875 nM.
For `CC(Oc1ccc(Cl)cc1Cl)C(=O)N1C[C@@H]2CCC[C@H]2C1C(=O)N[C@H](C=O)C[C@@H]1CCNC1=O` (stereo not given in full) [WO2022021841, 69], the Ki worked out at 107 nM.
On to `CC1(C)CNC(=O)[C@@H]1C[C@@H](C=O)NC(=O)C1[C@H]2[C@H](CN1C(=O)COc1ccc(Cl)cc1Cl)C2(C)C` (stereo not given in full) [WO2022021841, 55], for which the Ki was found to be 31 nM.
As for `COc1ccc(CCC(=O)N2C[C@@H]3CCC[C@H]3C2C(=O)N[C@H](C=O)C[C@@H]2CCNC2=O)cc1` (stereo not given in full) [WO2022021841, 76], the figure is 51 nM.
Turning to `O=C(NCc1ccccn1)C(=O)[C@H](C[C@@H]1CCNC1=O)NC(=O)C1[C@@H]2CCC[C@H]2CN1C(=O)COc1ccc(Cl)cc1Cl` (stereo not given in full) [WO2022021841, 53], the Ki stood at 63100 nM.
Compound `CC1(C)[C@@H]2C(C(=O)N[C@H](C=O)Cc3ccccc3)N(C(=O)c3ccc4ccccc4n3)C[C@@H]21` (stereo not given in full) [WO2022021841, 9] gave a Ki of 24200 nM.
In turn, `CC1CNC(=O)[C@@H]1C[C@H](NC(=O)C1[C@H]2CCC[C@H]2CN1C(=O)COc1ccc(Cl)cc1Cl)C(=O)CF` (stereo not given in full) [WO2022021841, 4] returned a Ki of 12 nM.
Consider `CC1(C)CNC(=O)[C@@H]1C[C@@H](C=O)NC(=O)C1[C@@H]2CCC[C@H]2CN1C(=O)COc1ccc(Cl)cc1Cl` (stereo not given in full) [WO2022021841, 54], for which the Ki is 24 nM.
In turn, `CC1(C)[C@@H]2C(C(=O)N[C@H](C=O)C[C@@H]3CCNC3=O)N(C(=O)c3ccc4ccccc4c3)C[C@@H]21` (stereo not given in full) [WO2022021841, 16] yielded an inhibitory constant (Ki) of 343 nM.
As for `COc1cccc(OCC(=O)N2C[C@H]3[C@@H](C2C(=O)N[C@H](C=O)C[C@@H]2CCNC2=O)C3(C)C)c1` (stereo not given in full) [WO2022021841, 23], the Ki was 37 nM.
As for `CC1CNC(=O)[C@@H]1C[C@H](NC(=O)C1[C@@H]2[C@H](CN1C(=O)COc1ccc(Cl)cc1Cl)C2(C)C)C(=O)CF` (stereo not given in full) [WO2022021841, 6], the inhibition constant (Ki) was found to be 9 nM.
As to `O=C[C@H](C[C@@H]1CCNC1=O)NC(=O)C1[C@@H]2CCC[C@H]2CN1C(=O)COc1ccc2c(c1)OCCO2` (stereo not given in full) [WO2022021841, 22], the Ki came out at 93 nM.
As for `O=C(NCc1ccccc1)C(=O)[C@H](C[C@@H]1CCNC1=O)NC(=O)C1[C@@H]2CCC[C@H]2CN1C(=O)COc1ccc(Cl)cc1Cl` (stereo not given in full) [WO2022021841, 51], affinity was put at a Ki of 50400 nM.
With `O=C[C@H](C[C@@H]1CCNC1=O)NC(=O)C1[C@@H]2CCC[C@H]2CN1C(=O)CCc1ccc(Cl)c(Cl)c1` (stereo not given in full) [WO2022021841, 68], the Ki is 35 nM.
Turning to `CC1CNC(=O)[C@@H]1C[C@H](NC(=O)C1[C@H]2CCC[C@H]2CN1C(=O)COc1cccc(-c2ccccc2)c1)C(=O)CF` (stereo not given in full) [WO2022021841, 5], affinity was put at a Ki of 11 nM.
The compound `O=C[C@H](C[C@@H]1CCNC1=O)NC(=O)C1[C@@H]2CCC[C@H]2CN1C(=O)CCc1ccc(O)c(O)c1` (stereo not given in full) [WO2022021841, 75] had a Ki of 41 nM.
`CC1(C)[C@@H]2C(C(=O)N[C@H](C=O)Cc3ccccc3)N(C(=O)c3ccc4ccccc4c3)C[C@@H]21` (stereo not given in full) [WO2022021841, 10] registered a Ki of 585 nM.
In turn, `O=C[C@H](C[C@@H]1CCNC1=O)NC(=O)C1[C@@H]2CCC[C@H]2CN1C(=O)C(F)Oc1ccc(Cl)cc1Cl` (stereo not given in full) [WO2022021841, 72] came in with an inhibitory constant (Ki) of 31 nM.

Values taken from BindingDB's records for patent WO2022021841 (Sichuan University, 2022).
